Experimental data as given in patent US20100227923A1, “PREVENTIVE/REMEDY FOR URINARY CALCULOSIS” (GODO SHUSEI CO., LTD., priority 2006, published 2010).
Like-named read-outs stand apart in the source and are kept apart here.

Columns and labels:
[1] = Blood level of rats after intravenous administration; type: in vivo, Wistar rats
Experimental: After fasting overnight, 10- to 11-week old Wistar male rats were anesthetized with Nembutal, and sodium L-arabonate (0.5 mmol/kg) was administered through the femoral vein of each rat. Blood was sampled through the carotid artery as time elapsed, whereby the L-arabonic acid level was determined. Blood collection was performed by means of a heparin-treated capillary before administration and 5 min, 15 min, 30 min, and 1 hour after administration.
(§1) The percent urine excretion (24 hours) was determined in the following manner. To each of the 5- to 6-week-old male Wistar rats which had been fasted overnight, sodium L-arabonate (0.5 mmol/kg) was administered through the tail vein. The rats were placed in a metabolic cage where urine was collected for 24 hours. After removal of protein from the blood samples and urine samples, the blood L-arabonic acid level of each sample was determined through HPLC. Instead of L-arabonic acid, sodium D-gluconate was administered to the rats of the control group. The blood sodium D-gluconate level was determined by means of an F-kit (product of Roche Diagnostic).

[2] = Percent urine excretion (24 hours) of rats after intravenous administration; type: in vivo, Wistar rats; details: for Percent urine excretion (24 hours): rats, 0.5 mmol/kg i.v., av. ± standard error
Experimental: as §1

mice = assay: Single-dose peroral safety experiment of mice (LD50); type: in vivo
[3] = Non-Patent Documents 4 to 6; cited from earlier work
[4] = Non-Patent Documents 4 to 6; cited from earlier work; remark: listed apart in the source

O=C([O-])[C@H](O)[C@@H](O)[C@H](O)[C@H](O)CO.[Na+] [Sodium D-gluconate, sodium D-gluconate]
Blood D-gluconic acid level ([1]; rats, 0.5 mmol/kg i.v.): considerably low
Metabolism in the body [2]: a large portion thereof is thought to be metabolized and consumed in the body
Percent urine excretion (24 hours) [2]: 9.8 ± 9.76%
Percent urine excretion (24 hours) ([2]; listed as sodium D-gluconate): about 10%

O=C(O)[C@H](O)[C@@H](O)[C@@H](O)CO [L-Arabonic acid, L-arabonic acid]
LD50 (mice): about 10 g/kg
Metabolism in the body ([2]; rat, in vivo): not metabolized in the body and is immediately excreted to urine
Portion of the absorbed L-arabonic acid excreted to urine ([2]; rat, in vivo): ~100%

O=C([O-])[C@H](O)[C@@H](O)[C@@H](O)CO.[Na+] [Sodium L-arabonate, sodium L-arabonate]
Time at which blood level decreased to about the half value ([1]; rat, in vivo, iv): 22 min

O=C(O)[C@H](O)[C@@H](O)[C@H](O)[C@H](O)CO [D-gluconic acid]
Dissolving of calcium phosphate calculi and magnesium phosphate calculi [3]: dissolve
Dissolving of calcium oxalate calculi [4]: not to dissolve
